# Tested on: Mycobacterium tuberculosis
# Test: Antimycobacterial activity against multidrug resistant Mycobacterium tuberculosis Praha 131 assessed as microbial growth inhibition incubated for 14 days
# Format: functional
# Settings: Praha 131, 336 h
row,Compound,MIC [µM]
1,Nc1ncnc2c1c(-c1cccc3c1Sc1ccccc1S3)cn2[C@@H]1O[C@H](CO)[C@@H](O)[C@H]1O,125
2,COc1cc(-c2cn([C@@H]3O[C@H](CO)[C@@H](O)[C@H]3O)c3ncnc(N)c23)cc(OC)c1OC,8
3,Nc1ncnc2c1c(-c1ccc(-c3ccc4ccccc4c3)cc1)cn2[C@@H]1O[C@H](CO)[C@@H](O)[C@H]1O,62.5
4,Nc1ncnc2c1c(-c1cc3ccccc3o1)cn2[C@@H]1O[C@H](CO)[C@@H](O)[C@H]1O,16
5,Nc1ncnc2c1c(-c1ccccc1)cn2[C@@H]1O[C@H](CO)[C@@H](O)[C@H]1O,8
6,COc1ccc(-c2cn([C@@H]3O[C@H](CO)[C@@H](O)[C@H]3O)c3ncnc(N)c23)cc1,16
7,CC(C)Oc1ccc(-c2cn([C@@H]3O[C@H](CO)[C@@H](O)[C@H]3O)c3ncnc(N)c23)cc1,32
8,Nc1ncnc2c1c(-c1ccsc1)cn2[C@@H]1O[C@H](CO)[C@@H](O)[C@H]1O,8
9,Nc1ncnc2c1c(-c1cccc3c1Oc1ccccc1S3)cn2[C@@H]1O[C@H](CO)[C@@H](O)[C@H]1O,16
10,Nc1ncnc2c1c(-c1cc[nH]n1)cn2[C@@H]1O[C@H](CO)[C@@H](O)[C@H]1O,> 250
11,Nc1ncnc2c1c(-c1cccc3ccccc13)cn2[C@@H]1O[C@H](CO)[C@@H](O)[C@H]1O,32
12,Nc1ncnc2c1c(-c1nccs1)cn2[C@@H]1O[C@H](CO)[C@@H](O)[C@H]1O,125
13,Nc1ncnc2c1c(-c1ccc(-c3ccccc3)cc1)cn2[C@@H]1O[C@H](CO)[C@@H](O)[C@H]1O,4
14,Nc1ncnc2c1c(-c1ccco1)cn2[C@@H]1O[C@H](CO)[C@@H](O)[C@H]1O,62.5
15,Nc1ncnc2c1c(-c1ccoc1)cn2[C@@H]1O[C@H](CO)[C@@H](O)[C@H]1O,16
16,Nc1ncnc2c1c(-c1cc3ccccc3c3ccccc13)cn2[C@@H]1O[C@H](CO)[C@@H](O)[C@H]1O,32
17,Nc1ncnc2c1c(-c1ccc3ccccc3c1)cn2[C@@H]1O[C@H](CO)[C@@H](O)[C@H]1O,4
18,Cc1ccc(-c2cn([C@@H]3O[C@H](CO)[C@@H](O)[C@H]3O)c3ncnc(N)c23)cc1C,8

row,Compound,MIC [µM]
1,Nc1ncnc2c1c(/C=C/c1ccccc1)cn2[C@@H]1O[C@H](CO)[C@@H](O)[C@H]1O,8
2,CSc1ccc(-c2cn([C@@H]3O[C@H](CO)[C@@H](O)[C@H]3O)c3ncnc(N)c23)cc1,8
3,Nc1ncnc2c1c(-c1c[nH]cn1)cn2[C@@H]1O[C@H](CO)[C@@H](O)[C@H]1O,> 250
4,Nc1ncnc2c1c(-c1ncc[nH]1)cn2[C@@H]1O[C@H](CO)[C@@H](O)[C@H]1O,> 250
5,Nc1ncnc2c1c(-c1ccc(C(F)(F)F)cc1)cn2[C@@H]1O[C@H](CO)[C@@H](O)[C@H]1O,4
6,CC(C)c1ccc(-c2cn([C@@H]3O[C@H](CO)[C@@H](O)[C@H]3O)c3ncnc(N)c23)cc1,16
7,Nc1ncnc2c1c(-c1cccs1)cn2[C@@H]1O[C@H](CO)[C@@H](O)[C@H]1O,8
8,CC(C)c1cccc(-c2cn([C@@H]3O[C@H](CO)[C@@H](O)[C@H]3O)c3ncnc(N)c23)c1,32
9,Nc1ncnc2c1c(-c1ccc3c(c1)OCO3)cn2[C@@H]1O[C@H](CO)[C@@H](O)[C@H]1O,8
10,Nc1ncnc2c1c(-c1cc[nH]c1)cn2[C@@H]1O[C@H](CO)[C@@H](O)[C@H]1O,62.5
11,Nc1ncnc2c1c(-c1cn[nH]c1)cn2[C@@H]1O[C@H](CO)[C@@H](O)[C@H]1O,125
12,Nc1ncnc2c1c(-c1cccc3c1oc1ccccc13)cn2[C@@H]1O[C@H](CO)[C@@H](O)[C@H]1O,4
13,Nc1ncnc2c1c(-c1c[nH]nn1)cn2[C@@H]1O[C@H](CO)[C@@H](O)[C@H]1O,> 250
14,Nc1ncnc2c1c(-c1ccc(COc3cccc4ccccc34)cc1)cn2[C@@H]1O[C@H](CO)[C@@H](O)[C@H]1O,32
15,C#Cc1cn([C@@H]2O[C@H](CO)[C@@H](O)[C@H]2O)c2ncnc(N)c12,8
16,Nc1ncnc2c1c(-c1ccc3c4c(cccc14)CC3)cn2[C@@H]1O[C@H](CO)[C@@H](O)[C@H]1O,16
17,CC(C)(C)c1ccc(-c2cn([C@@H]3O[C@H](CO)[C@@H](O)[C@H]3O)c3ncnc(N)c23)cc1,62.5
18,Nc1ncnc2c1c(-c1ccc[nH]1)cn2[C@@H]1O[C@H](CO)[C@@H](O)[C@H]1O,62.5

# Reference: ChEMBL document CHEMBL3352218, “Structural basis for inhibition of mycobacterial and human adenosine kinase by 7-substituted 7-(Het)aryl-7-deazaadenine ribonucleosides” (J Med Chem, 2014)
